Measured values taken from ChEMBL document CHEMBL1201862, “PubChem BioAssay data set” (2004).
Active and inactive are the calls of the source.

Experiments:
Assay type in all cases: functional
[1] = molecular target: T1, Sentrin-specific protease 7 (Homo sapiens, UniProt Q9BQF6);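 note: Luminescence-based dose-response confirmation of ultra-high-throughput screening hits, measuring inhibition of SENP7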
T1 sequence (Q9BQF6 whole entry): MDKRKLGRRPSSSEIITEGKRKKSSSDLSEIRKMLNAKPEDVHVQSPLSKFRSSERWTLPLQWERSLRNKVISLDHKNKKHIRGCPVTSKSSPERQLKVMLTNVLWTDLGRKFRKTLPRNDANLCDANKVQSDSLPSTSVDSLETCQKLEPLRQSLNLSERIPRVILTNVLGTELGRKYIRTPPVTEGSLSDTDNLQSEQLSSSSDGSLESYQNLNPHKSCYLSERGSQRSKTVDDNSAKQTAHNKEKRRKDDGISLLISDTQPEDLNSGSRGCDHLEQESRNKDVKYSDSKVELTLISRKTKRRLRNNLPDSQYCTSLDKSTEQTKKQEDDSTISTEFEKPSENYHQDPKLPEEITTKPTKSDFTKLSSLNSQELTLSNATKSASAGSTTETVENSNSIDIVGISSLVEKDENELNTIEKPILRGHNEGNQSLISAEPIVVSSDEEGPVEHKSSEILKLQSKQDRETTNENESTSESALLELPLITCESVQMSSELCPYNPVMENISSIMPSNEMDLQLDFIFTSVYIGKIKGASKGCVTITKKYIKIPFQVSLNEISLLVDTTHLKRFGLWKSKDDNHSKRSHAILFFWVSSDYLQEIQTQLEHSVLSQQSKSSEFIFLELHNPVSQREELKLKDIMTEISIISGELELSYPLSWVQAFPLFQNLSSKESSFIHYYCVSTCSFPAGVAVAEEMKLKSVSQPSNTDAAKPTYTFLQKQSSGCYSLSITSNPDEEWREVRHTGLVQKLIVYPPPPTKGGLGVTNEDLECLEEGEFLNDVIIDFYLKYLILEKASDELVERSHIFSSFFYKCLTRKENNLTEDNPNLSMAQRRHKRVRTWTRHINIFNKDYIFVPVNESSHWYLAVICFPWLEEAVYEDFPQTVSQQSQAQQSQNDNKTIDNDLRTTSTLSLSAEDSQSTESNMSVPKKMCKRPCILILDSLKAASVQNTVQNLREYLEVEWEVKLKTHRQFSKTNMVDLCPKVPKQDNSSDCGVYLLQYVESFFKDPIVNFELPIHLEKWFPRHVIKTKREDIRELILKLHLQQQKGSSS

[2] = molecular target: T2, Sentrin-specific protease 6 (Homo sapiens, UniProt Q9GZR1);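 note: Luminescence-based dose-response confirmatory assay of SENP6 inhibition, following up an ultra-high-throughput screen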
T2 sequence (Q9GZR1 whole entry): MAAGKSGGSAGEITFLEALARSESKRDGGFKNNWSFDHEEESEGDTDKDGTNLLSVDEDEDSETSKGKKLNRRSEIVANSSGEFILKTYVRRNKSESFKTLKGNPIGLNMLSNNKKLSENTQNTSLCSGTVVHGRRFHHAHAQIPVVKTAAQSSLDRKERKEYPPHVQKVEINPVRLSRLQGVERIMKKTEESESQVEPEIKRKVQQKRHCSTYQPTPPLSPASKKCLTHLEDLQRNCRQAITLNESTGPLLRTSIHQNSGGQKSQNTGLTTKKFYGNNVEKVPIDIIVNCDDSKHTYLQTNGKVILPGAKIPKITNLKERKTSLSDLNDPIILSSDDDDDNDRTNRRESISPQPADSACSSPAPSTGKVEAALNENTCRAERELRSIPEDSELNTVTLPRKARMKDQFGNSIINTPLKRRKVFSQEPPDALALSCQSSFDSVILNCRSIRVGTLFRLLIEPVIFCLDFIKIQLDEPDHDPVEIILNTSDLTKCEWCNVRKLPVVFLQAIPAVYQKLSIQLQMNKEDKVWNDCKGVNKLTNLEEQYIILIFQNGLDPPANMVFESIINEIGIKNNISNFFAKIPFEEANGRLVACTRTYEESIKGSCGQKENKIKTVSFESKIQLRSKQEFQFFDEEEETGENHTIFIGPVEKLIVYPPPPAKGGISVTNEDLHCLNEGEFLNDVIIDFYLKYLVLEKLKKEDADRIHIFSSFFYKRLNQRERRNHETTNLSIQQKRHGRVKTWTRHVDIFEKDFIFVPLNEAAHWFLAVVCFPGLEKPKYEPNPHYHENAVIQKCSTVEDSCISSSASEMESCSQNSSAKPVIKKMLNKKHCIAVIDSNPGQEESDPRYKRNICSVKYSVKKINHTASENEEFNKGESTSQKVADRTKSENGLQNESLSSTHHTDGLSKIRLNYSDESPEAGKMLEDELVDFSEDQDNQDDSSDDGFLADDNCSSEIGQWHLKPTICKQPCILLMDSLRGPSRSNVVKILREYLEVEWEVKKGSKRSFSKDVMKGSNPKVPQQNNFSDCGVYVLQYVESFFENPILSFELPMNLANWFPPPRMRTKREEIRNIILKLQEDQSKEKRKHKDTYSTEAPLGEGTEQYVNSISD

[3] = molecular target: Tyrosine-protein kinase ABL1 (Homo sapiens, UniProt P00519)
Chain of Tyrosine-protein kinase ABL1 (P00519 whole entry): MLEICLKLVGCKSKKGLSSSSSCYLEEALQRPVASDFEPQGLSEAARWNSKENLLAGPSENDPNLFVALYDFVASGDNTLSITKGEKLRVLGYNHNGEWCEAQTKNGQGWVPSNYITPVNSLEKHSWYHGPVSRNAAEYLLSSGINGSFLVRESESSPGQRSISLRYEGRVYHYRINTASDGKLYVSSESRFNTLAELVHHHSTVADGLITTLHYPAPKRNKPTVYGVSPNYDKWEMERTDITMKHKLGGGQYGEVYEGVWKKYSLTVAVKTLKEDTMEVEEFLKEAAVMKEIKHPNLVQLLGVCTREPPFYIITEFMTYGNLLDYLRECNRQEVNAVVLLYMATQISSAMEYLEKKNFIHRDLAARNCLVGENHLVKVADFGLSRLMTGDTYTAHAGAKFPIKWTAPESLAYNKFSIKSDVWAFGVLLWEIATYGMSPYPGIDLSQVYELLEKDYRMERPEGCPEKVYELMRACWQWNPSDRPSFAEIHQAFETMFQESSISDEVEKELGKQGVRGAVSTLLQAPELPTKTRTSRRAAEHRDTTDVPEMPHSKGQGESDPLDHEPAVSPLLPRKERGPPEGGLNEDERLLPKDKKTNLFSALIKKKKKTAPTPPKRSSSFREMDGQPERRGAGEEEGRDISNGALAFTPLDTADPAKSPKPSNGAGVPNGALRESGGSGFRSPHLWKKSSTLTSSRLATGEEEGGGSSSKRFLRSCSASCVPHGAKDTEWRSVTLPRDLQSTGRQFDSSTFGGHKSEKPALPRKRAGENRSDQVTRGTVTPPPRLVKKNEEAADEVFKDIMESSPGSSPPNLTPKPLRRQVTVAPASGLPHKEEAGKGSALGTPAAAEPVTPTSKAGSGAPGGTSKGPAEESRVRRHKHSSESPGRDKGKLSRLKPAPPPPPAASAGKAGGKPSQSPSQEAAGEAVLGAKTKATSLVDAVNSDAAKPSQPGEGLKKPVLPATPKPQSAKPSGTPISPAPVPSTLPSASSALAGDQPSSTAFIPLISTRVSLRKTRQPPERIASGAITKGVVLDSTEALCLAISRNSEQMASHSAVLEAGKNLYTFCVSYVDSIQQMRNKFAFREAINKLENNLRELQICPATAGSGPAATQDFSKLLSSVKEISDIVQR

[4] = molecular target: Cyclin-dependent kinase 7 (Homo sapiens, UniProt P50613);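 note: value comes from a kinome-wide kinase profiling panel in which CDK7 is one member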
Chain of Cyclin-dependent kinase 7 (P50613 whole entry): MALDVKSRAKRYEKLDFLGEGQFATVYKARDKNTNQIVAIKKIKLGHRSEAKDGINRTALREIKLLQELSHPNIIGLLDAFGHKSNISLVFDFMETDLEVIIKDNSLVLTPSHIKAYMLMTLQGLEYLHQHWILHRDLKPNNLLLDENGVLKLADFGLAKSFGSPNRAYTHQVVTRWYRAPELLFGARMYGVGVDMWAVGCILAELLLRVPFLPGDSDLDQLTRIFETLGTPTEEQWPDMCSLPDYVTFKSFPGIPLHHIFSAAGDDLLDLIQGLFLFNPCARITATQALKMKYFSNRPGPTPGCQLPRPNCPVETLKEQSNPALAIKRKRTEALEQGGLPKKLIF

[5] = molecular target: Dual specificity mitogen-activated protein kinase kinase 2 (Homo sapiens, UniProt P36507); experiment: Navigating the Kinome. Panel member name: MAP2K2
Chain of Dual specificity mitogen-activated protein kinase kinase 2 (P36507 whole entry): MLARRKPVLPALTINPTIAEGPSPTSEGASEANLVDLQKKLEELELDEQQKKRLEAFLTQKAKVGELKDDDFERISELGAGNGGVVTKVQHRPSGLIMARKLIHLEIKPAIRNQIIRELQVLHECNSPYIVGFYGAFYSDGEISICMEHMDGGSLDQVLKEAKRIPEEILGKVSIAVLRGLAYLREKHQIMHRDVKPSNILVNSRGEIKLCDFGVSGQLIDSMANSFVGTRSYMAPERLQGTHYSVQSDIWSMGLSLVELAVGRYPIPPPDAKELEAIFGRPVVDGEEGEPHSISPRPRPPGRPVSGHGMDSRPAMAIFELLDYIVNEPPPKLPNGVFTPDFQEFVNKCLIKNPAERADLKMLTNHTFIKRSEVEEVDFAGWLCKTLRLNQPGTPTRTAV

SMILES	Ki [3]	Ki [4]	Ki [5]	IC50 [1]	IC50 [2]
O=C(NC1=C(Nc2ccc(F)cc2)C(=O)c2ccccc2C1=O)c1ccc(Cl)cc1	–	–	–	24.3 µM (active)	8.56 µM (active)
Oc1nc(Nc2ccc(F)cc2)cc2ccccc12	–	–	–	7.05 µM (active)	2.99 µM (active)
CN(C)c1cc(N/N=C\c2ccccc2)nc(N(C)C)n1	–	–	–	77.6 µM (active)	6 µM (active)
O=C1Nc2cc(-c3ccc(O)cc3)ccc2C1=Cc1ccc[nH]1	0.0501 µM (active)	> 3.98 µM (inactive)	> 3.98 µM (inactive)	–	–

Second part, led by results:

Ki [3]	Ki [4]	Ki [5]	SMILES	IC50 [1]	IC50 [2]
0.0631 µM (active)	0.01 µM (active)	0.316 µM (active)	NC(COc1cncc(-c2ccc3c(c2)C(=Cc2ccc[nH]2)C(=O)N3)c1)Cc1ccccc1 (stereo not given)	–	–
79.4 µM (active)	39.8 µM (active)	50.1 µM (active)	O=C1Cc2cc(-c3ccccc3)cnc2N1	–	–
